In patent US10100010B1, “4-methoxy pyrrole derivatives or salts thereof and pharmaceutical composition comprising the same” (Daewoong Pharmaceutical Co., Ltd., priority 2015, dated 2018):
Counter-ions that a name gives are not always drawn.

Experiments:
Assay type in all cases: cell-based
[1] = target: 5-HT2A (Homo sapiens, UniProt P28223); assay: GPCR Calcium Flux assay (FLIPR tetra, Eurofins), 5-HT2A; settings: for inhibition at 10 µM: single concentration of 10 uM, read-out: inhibition rate (%) 5-HT2A; for IC50: 8 concentrations 10 to 0.0006 uM, read-out: 50% inhibitory concentration (IC50) 5-HT2A
Sequence of 5-HT2A (P28223 whole entry): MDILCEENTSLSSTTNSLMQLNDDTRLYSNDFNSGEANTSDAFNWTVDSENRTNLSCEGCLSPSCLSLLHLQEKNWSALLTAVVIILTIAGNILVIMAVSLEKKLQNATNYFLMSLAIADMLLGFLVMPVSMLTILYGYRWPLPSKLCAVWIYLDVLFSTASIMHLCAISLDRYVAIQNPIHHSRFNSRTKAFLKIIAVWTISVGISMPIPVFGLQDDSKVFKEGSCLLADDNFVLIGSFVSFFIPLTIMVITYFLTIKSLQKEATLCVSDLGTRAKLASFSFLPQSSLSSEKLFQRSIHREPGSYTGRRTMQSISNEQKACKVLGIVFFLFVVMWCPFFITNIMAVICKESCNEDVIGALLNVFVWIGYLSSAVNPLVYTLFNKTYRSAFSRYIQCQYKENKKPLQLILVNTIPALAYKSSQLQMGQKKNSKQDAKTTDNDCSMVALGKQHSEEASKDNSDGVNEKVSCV
Description: (§1) In order to confirm whether the compounds prepared in the above Examples act as an agonist or antagonist against GPCR Target, Calcium Flux assay was performed in an assay plate in which the compounds prepared in the Examples, vehicle controls, and reference compounds were added, using a Fluorometric imaging plate reader (FLIPR tetra) equipment.
(§2) Calcium Flux assay was evaluated by entrusting the GPCR profiler assay in Safety panel assays with Eurofins. By using the Fluo-8AM calcium dye, excitation was measured at a wavelength in the range of 470 to 495 nm and Emission was measured at a wavelength in the range of 515-575 nm. GPCR Assay Buffer for Calcium Flux assay was prepared by adding 20 mM of HEPES and 2.5 mM of Probenecid to Hanks Balanced Salt Solution (HBSS) to have pH 7.4. The Compounds of Examples for evaluation of the GPCR were diluted with DMSO at a concentration of 10 mM to make a stock and then prepared by diluting in the GPCR Assay Buffer at the concentration equivalent to three times the final concentration. First, for the evaluation of GPCRs, the inhibitory activity of the compounds of the Examples was evaluated at a single concentration of 10 uM, and then the respective selected targets were four fold-diluted from 10 uM to the low side to calculate 50% inhibitory concentration (IC50), prepared at the total 8 concentrations of 10, 2.5, 0.62, 0.15, 0.04, 0.01, 0.0024, 0.0006 uM, and Calcium Flux assay for GPCR was conducted. In order to evaluate the agonist and antagonist, % inhibition rate against GPCR activity before and after treatment of the compounds and the inhibitory activity of the compounds of the Examples were determined.
(§3) As a result, when the efficacy of […] and acetylcholine of the compounds prepared in the Examples was 100%, the inhibition rate (%) at a single concentration of 10 uM was evaluated and shown in Table 8.

[2] = target: T1, M1 (Homo sapiens, UniProt P11229); assay: GPCR Calcium Flux assay (FLIPR tetra, Eurofins), M1; settings: for inhibition at 10 µM: single concentration of 10 uM, read-out: inhibition rate (%) M1; for IC50: 8 concentrations 10 to 0.0006 uM, read-out: 50% inhibitory concentration (IC50) M1
T1 sequence (P11229 1-460): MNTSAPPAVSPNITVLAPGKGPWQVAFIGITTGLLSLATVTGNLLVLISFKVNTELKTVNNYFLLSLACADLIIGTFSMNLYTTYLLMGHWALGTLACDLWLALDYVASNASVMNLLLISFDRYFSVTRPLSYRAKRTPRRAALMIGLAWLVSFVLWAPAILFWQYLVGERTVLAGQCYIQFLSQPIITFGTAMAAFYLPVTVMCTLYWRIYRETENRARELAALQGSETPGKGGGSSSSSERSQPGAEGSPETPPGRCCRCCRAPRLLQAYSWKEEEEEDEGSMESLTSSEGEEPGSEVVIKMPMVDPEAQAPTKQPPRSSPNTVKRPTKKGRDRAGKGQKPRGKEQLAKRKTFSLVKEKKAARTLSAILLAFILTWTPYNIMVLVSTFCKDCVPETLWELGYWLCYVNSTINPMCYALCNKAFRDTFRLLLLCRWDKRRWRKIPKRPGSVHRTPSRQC
Description: as §1, §2, §3

[3] = target: T2, M2 (Homo sapiens, UniProt P08172); assay: GPCR Calcium Flux assay (FLIPR tetra, Eurofins), M2; settings: for inhibition at 10 µM: single concentration of 10 uM, read-out: inhibition rate (%) M2; for IC50: 8 concentrations 10 to 0.0006 uM, read-out: 50% inhibitory concentration (IC50) M2
T2 sequence (P08172 1-466): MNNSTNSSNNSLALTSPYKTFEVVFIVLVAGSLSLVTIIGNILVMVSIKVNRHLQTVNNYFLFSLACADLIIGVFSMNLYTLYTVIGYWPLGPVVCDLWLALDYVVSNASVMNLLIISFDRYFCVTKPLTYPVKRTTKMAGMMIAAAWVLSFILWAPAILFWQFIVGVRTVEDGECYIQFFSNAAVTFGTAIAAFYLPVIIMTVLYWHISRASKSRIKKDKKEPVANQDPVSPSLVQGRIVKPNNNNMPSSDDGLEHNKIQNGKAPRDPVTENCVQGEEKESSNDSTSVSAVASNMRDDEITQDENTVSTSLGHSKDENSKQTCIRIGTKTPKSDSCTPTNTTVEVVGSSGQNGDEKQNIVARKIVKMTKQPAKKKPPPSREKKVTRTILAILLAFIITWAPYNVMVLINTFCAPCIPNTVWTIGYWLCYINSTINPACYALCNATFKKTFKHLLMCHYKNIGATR
Description: as §1, §2, §3

Row | SMILES | inhibition at 10 µM [1] [%] | inhibition at 10 µM [2] [%] | inhibition at 10 µM [3] [%] | IC50 [1] [nM] | IC50 [2] [nM] | IC50 [3] [nM]
1 | CNCc1cn(S(=O)(=O)c2cccc(OC)c2)c(-c2ccccc2Cl)c1OC [Example 5, 1-(5-(2-chlorophenyl)-4-methoxy-1-((3-methoxyphenyl)sulfonyl)-1H-pyrrol-3-yl)-N-methylmethanamine hydrochloride] | 69.1 | 93.7 | 75.1 |  |  | 
2 | CNCc1cn(S(=O)(=O)c2cccc(C(F)(F)F)c2)c(-c2ccc(Cl)cc2F)c1OC [Example 7, 1-(5-(2-fluoro-4-chlorophenyl)-4-methoxy-1-((3-(trifluoromethyl)phenyl)sulfonyl)-1H-pyrrol-3-yl)-N-methylmethanamine hydrochloride] | 42.3 | 65.6 | 0.8 |  |  | 
3 | CNCc1cn(S(=O)(=O)c2cccc(C(F)(F)F)c2)c(-c2c(F)ccc(F)c2F)c1OC [Example 29, 1-(1-((3-trifluoromethylphenyl)sulfonyl)-4-methoxy-5-(2,3,6-trifluorophenyl)-1H-pyrrol-3-yl)-N-methylmethanamine hydrochloride] | 35.7 | 68.4 | 19.4 |  |  | 
4 | CNCc1cn(S(=O)(=O)c2ccc(F)c(F)c2)c(-c2c(F)cccc2F)c1OC [Example 19, 1-(5-(2,6-difluorophenyl)-1-((3,4-difluorophenyl)sulfonyl)-4-methoxy-1H-pyrrol-3-yl)-N-methylmethanamine hydrochloride] | 102 | 101 | 102 | 120 | 430 | 820
5 | CNCc1cn(S(=O)(=O)c2cccc(F)c2)c(-c2cc(F)ccc2F)c1OC [Example 31, 1-(5-(2,5-difluorophenyl)-1-((3-fluorophenyl)sulfonyl)-4-methoxy-1H-pyrrol-3-yl)-N-methylmethanamine hydrochloride] | 101 | 100 | 98.6 | 42 | 73 | 
6 | CNCc1cn(S(=O)(=O)c2cccc(F)c2)c(-c2c(F)cccc2F)c1OC [Example 13, 1-(5-(2,6-difluorophenyl)-1-((3-fluorophenyl)sulfonyl)-4-methoxy-1H-pyrrol-3-yl)-N-methylmethanamine hydrochloride] | 102 | 100 | 99.4 | 76 | 110 | 510
7 | CNCc1cn(S(=O)(=O)c2cccc(C(F)(F)F)c2)c(-c2ccc(F)cc2F)c1OC [Example 9, 1-(5-(2,4-difluorophenyl)-1-((3-(trifluoromethyl)phenyl)sulfonyl)-4-methoxy-1H-pyrrol-3-yl)-N-methylmethanamine hydrochloride] | 61.1 | 74.7 | 18.3 |  |  | 
8 | CNCc1cn(S(=O)(=O)c2ccc(F)c(F)c2)c(-c2c(F)cc(F)cc2F)c1OC [Example 26, 1-(1-((3,4-difluorophenyl)sulfonyl)-4-methoxy-5-(2,4,6-trifluorophenyl)-1H-pyrrol-3-yl)-N-methylmethanamine hydrochloride] | 99 | 101 | 89.2 |  |  | 
9 | CNCc1cn(S(=O)(=O)c2cccc(OC(F)F)c2)c(-c2ccccc2F)c1OC [Example 4, 1-(5-(2-fluorophenyl)-4-methoxy-1-((3-difluoromethoxyphenyl)sulfonyl)-1H-pyrrol-3-yl)-N-methylmethanamine hydrochloride] | 96 | 55.8 | 22 | 850 |  | 
